Laboratory results: the supplement of paper PMC11061612

Columns and labels:
Test in all cases: Bliss excess, mean over the matrix (fraction); higher = more synergy
[1] = tested on: RF-48 (B-Cell Non-Hodgkin's Lymphoma)
Summary of the method: (§1)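 After 24 hours at 37°C and 5% CO2 in 1536-well plates, cells in DMEM/F12 or RPMI plus 10% FBS received two-drug dose matrices for 72 hours. Viability came from CellTiter-Glo 2.0 luminescence and was scaled as inhibition, anchored at 0 by vehicle wells and at 1 by blank wells. Combination Emax is taken as the second-highest inhibition in the matrix, and Bliss excess as the observed combination effect less EA + EB − EA·EB, with EA and EB the single-agent effects.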

[2] = tested on: NUGC-3 (Gastric Carcinoma)
Summary of the method: as §1

[3] = tested on: UACC-62 (Melanoma)
Summary of the method: as §1

[4] = tested on: LU-65 (Non-Small Cell Lung Carcinoma)
Summary of the method: as §1

[5] = tested on: PANC-04-03 (Pancreatic Carcinoma)
Summary of the method: as §1

[6] = tested on: KARPAS-299 (T-Cell Non-Hodgkin's Lymphoma)
Summary of the method: as §1

[7] = tested on: OVCAR-4 (Ovarian Carcinoma)
Summary of the method: as §1

[8] = tested on: NEC8 (Other Solid Carcinomas)
Summary of the method: as §1

[9] = tested on: HGC-27 (Gastric Carcinoma)
Summary of the method: as §1

[10] = tested on: NCI-H358 (Lung Adenocarcinoma)
Summary of the method: as §1

[11] = tested on: SU8686 (Pancreatic Carcinoma)
Summary of the method: as §1

[12] = tested on: HSC-4 (Oral Cavity Carcinoma)
Summary of the method: as §1

[13] = tested on: BT-549 (Breast Carcinoma)
Summary of the method: as §1

[14] = tested on: SW13 (Other Solid Carcinomas)
Summary of the method: as §1

[15] = tested on: KMOE-2 (Acute Myeloid Leukemia)
Summary of the method: as §1

[16] = tested on: PWR-1E (Non-Cancerous)
Summary of the method: as §1

[17] = tested on: AMO-1 (Plasma Cell Myeloma)
Summary of the method: as §1

[18] = tested on: ACHN (Kidney Carcinoma)
Summary of the method: as §1

[19] = tested on: OE19 (Esophageal Adenocarcinoma)
Summary of the method: as §1

[20] = tested on: SCC-15 (Oral Cavity Carcinoma)
Summary of the method: as §1

| SMILES | Bliss excess [1] | Bliss excess [2] | Bliss excess [3] | Bliss excess [4] | Bliss excess [5] | Bliss excess [6] | Bliss excess [7] | Bliss excess [8] | Bliss excess [9] | Bliss excess [10] | Bliss excess [11] | Bliss excess [12] | Bliss excess [13] | Bliss excess [14] | Bliss excess [15] | Bliss excess [16] | Bliss excess [17] | Bliss excess [18] | Bliss excess [19] | Bliss excess [20] |
| --- | --- | --- | --- | --- | --- | --- | --- | --- | --- | --- | --- | --- | --- | --- | --- | --- | --- | --- | --- | --- |
| CN(C)CCCOc1ccc(-c2ccc3ncc4c(c3c2)n(C2CCOCC2)c(=O)n4C)cn1 [AZD0156] + CCN(CCO)CCCOc1ccc2c(Nc3cc(CC(=O)Nc4cccc(F)c4)[nH]n3)ncnc2c1 [AZD2811] (first compound max 1 µM, 7x7, partner max 1 µM) | 0.0084 | 0.0312 | -0.0467 | 0.0441 | -0.0644 | 0.0031 | -0.0148 | 0.0233 | -0.0352 | -0.0214 | -0.0375 | -0.0348 | -0.0028 | 0.0259 | 0.0096 | 0.0831 | 0.0053 | -0.0232 | 0.0224 | -0.0458 |
| CC(=O)c1c(C)c2cnc(Nc3ccc(N4CCNCC4)cn3)nc2n(C2CCCC2)c1=O [Palbociclib] + Cc1c2c(nn1C)CSCc1cc(n(C)n1)CSc1cc(c3ccccc3c1)OCCCc1c(C(=O)O)n(C)c3c-2c(Cl)ccc13 [AZD5991] (first compound max 10 µM, 7x7, partner max 1 µM) | -0.0722 | -0.134 | -0.0612 | -0.0692 | -0.0464 | 0.0262 | -0.0337 | 0.0111 | -0.0219 | -0.0249 | -0.0405 | -0.0729 | 0.0106 | 0.0252 | -0.0002 | 0.0128 | -0.0375 | -0.0106 | 0.0014 | -0.044 |
| CN(C)CCCOc1ccc(-c2ccc3ncc4c(c3c2)n(C2CCOCC2)c(=O)n4C)cn1 [AZD0156] + O=C(c1cc(Cc2n[nH]c(=O)c3ccccc23)ccc1F)N1CCN(C(=O)C2CC2)CC1 [Olaparib] (first compound max 3 µM, partner max 3 µM) | 0.0064 | 0.0093 | -0.028 | 0.0033 | 0.0481 | 0 | -0.0137 | 0.104 | 0.0997 | -0.0175 | -0.0011 | 0.0226 | -0.0436 | 0.0694 | 0.0564 | 0.286 | 0.0066 | 0.0728 | 0.13 | 0.067 |
| COc1cccc(OCCCN)c1-c1cc(Nc2cnc(C#N)cn2)n[nH]1 [Prexasertib] + Cc1cc2ncnn2cc1Nc1ncc2c(n1)n(C1CCOCC1)c(=O)n2C [AZD7648] (first compound max 1 µM, 7x7, partner max 10 µM) | -0.0549 | -0.0129 | -0.0125 | -0.0099 | -0.0327 | -0.0226 | -0.0739 | 0 | -0.0235 | -0.0438 | -0.0227 | -0.0421 | -0.0341 | 0.0009 | 0.0172 | -0.0243 | -0.004 | -0.0182 | -0.0291 | -0.0065 |
| NC1(C(=O)N[C@@H](CCO)c2ccc(Cl)cc2)CCN(c2ncnc3[nH]ccc23)CC1 [Capivasertib] + CCN(CCO)CCCOc1ccc2c(Nc3cc(CC(=O)Nc4cccc(F)c4)[nH]n3)ncnc2c1 [AZD2811] (first compound max 10 µM, 7x7, partner max 1 µM) | -0.0019 | -0.0178 | -0.016 | -0.215 | -0.0142 | 0.029 | -0.0092 | -0.0094 | -0.0167 | -0.0521 | -0.0212 | -0.081 | -0.0197 | -0.0397 | -0.0154 | -0.0124 | 0.0783 | -0.0384 | -0.0513 | 0.0105 |
| NC1(C(=O)N[C@@H](CCO)c2ccc(Cl)cc2)CCN(c2ncnc3[nH]ccc23)CC1 [Capivasertib] + C[C@@H]1COCCN1C2=NC(=NC(=C2)C3(CC3)[S@](=N)(=O)C)C4=C5C=CNC5=NC=C4 [AZD6738] (first compound max 10 µM, 7x7, partner max 10 µM) | -0.0888 | -0.0639 | 0.0231 | -0.137 | -0.0322 | -0.0163 | -0.0267 | 0.0288 | -0.0182 | -0.0896 | -0.032 | -0.0422 | -0.0724 | -0.049 | -0.0336 | -0.0534 | -0.021 | -0.0303 | -0.0619 | -0.027 |
| CN(CCO)CC[C@H](CSc1ccccc1)Nc1ccc(S(=O)(=O)NC(=O)c2ccc(N3CCC([C@@H](O)c4ccccc4-c4ccc(Cl)cc4)CC3)cc2)cc1S(=O)(=O)C(F)(F)F [AZD4320] + CN(C)CCCOc1ccc(-c2ccc3ncc4c(c3c2)n(C2CCOCC2)c(=O)n4C)cn1 [AZD0156] (first compound max 1 µM, 7x7, partner max 1 µM) | -0.0469 | -0.0477 | -0.0368 | -0.016 | -0.0652 | 0.0129 | -0.0155 | -0.0167 | -0.064 | -0.0101 | -0.0404 | -0.0579 | -0.0354 | -0.019 | 0.0446 | -0.0208 | -0.0217 | -0.0045 | -0.086 | -0.0538 |
| COc1cccc(OCCCN)c1-c1cc(Nc2cnc(C#N)cn2)n[nH]1 [Prexasertib] + O=C(c1cc(Cc2n[nH]c(=O)c3ccccc23)ccc1F)N1CCN(C(=O)C2CC2)CC1 [Olaparib] (first compound max 1 µM, 7x7, partner max 10 µM) | -0.0216 | -0.143 | -0.0183 | -0.0678 | -0.0415 | -0.0318 | -0.0589 | 0.0104 | 0.044 | -0.0809 | -0.0504 | 0.029 | 0.0195 | 0.0024 | 0.0279 | -0.211 | -0.0584 | -0.0857 | -0.125 | 0.0242 |
| COc1cccc(OCCCN)c1-c1cc(Nc2cnc(C#N)cn2)n[nH]1 [Prexasertib] + C[C@@H]1COCCN1C2=NC(=NC(=C2)C3(CC3)[S@](=N)(=O)C)C4=C5C=CNC5=NC=C4 [AZD6738] (first compound max 1 µM, 7x7, partner max 10 µM) | -0.0175 | -0.019 | -0.0174 | -0.0173 | 0.0017 | -0.0184 | -0.025 | -0.009 | -0.057 | -0.021 | -0.0315 | 0.0305 | 0.0054 | 0.0627 | -0.0043 | 0.0243 | -0.0361 | -0.0503 | -0.0277 | -0.0316 |
| NC1(C(=O)N[C@@H](CCO)c2ccc(Cl)cc2)CCN(c2ncnc3[nH]ccc23)CC1 [Capivasertib] + COc1nnc2ccc(N3CCC(c4ccc(OCCN5CCN(C)C(=O)[C@H]5C)cc4)CC3)nn12 [AZD5153] (first compound max 10 µM, 7x7, partner max 1 µM) | -0.0275 | 0.0564 | -0.0551 | -0.152 | -0.0242 | -0.0453 | -0.0387 | 0.0363 | 0.0097 | -0.0514 | -0.0359 | 0.0211 | 0.0602 | -0.0086 | -0.0211 | 0.0579 | -0.0336 | -0.0094 | 0.0561 | 0.028 |
| Cc1c2c(nn1C)CSCc1cc(n(C)n1)CSc1cc(c3ccccc3c1)OCCCc1c(C(=O)O)n(C)c3c-2c(Cl)ccc13 [AZD5991] + CN(C)CCCOc1ccc(-c2ccc3ncc4c(c3c2)n(C2CCOCC2)c(=O)n4C)cn1 [AZD0156] (first compound max 1 µM, 7x7, partner max 1 µM) | -0.0117 | 0.0167 | -0.0516 | -0.001 | 0.0116 | 0.016 | 0.0076 | 0.0201 | 0.0458 | 0.0096 | -0.0413 | -0.0955 | -0.004 | -0.0092 | -0.0526 | 0.027 | 0.0058 | 0.0086 | -0.0242 | -0.0048 |
| COc1nnc2ccc(N3CCC(c4ccc(OCCN5CCN(C)C(=O)[C@H]5C)cc4)CC3)nn12 [AZD5153] + CCN(CCO)CCCOc1ccc2c(Nc3cc(CC(=O)Nc4cccc(F)c4)[nH]n3)ncnc2c1 [AZD2811] (first compound max 1 µM, 7x7, partner max 1 µM) | 0.0065 | -0.0372 | -0.0564 | -0.0399 | -0.0667 | -0.0009 | -0.0568 | -0.0072 | -0.102 | -0.0479 | -0.0309 | -0.129 | -0.0576 | -0.0368 | -0.0176 | -0.0096 | -0.0109 | 0.0017 | -0.0026 | -0.0546 |
| Cc1c2c(nn1C)CSCc1cc(n(C)n1)CSc1cc(c3ccccc3c1)OCCCc1c(C(=O)O)n(C)c3c-2c(Cl)ccc13 [AZD5991] + C1CN(CCC1(C(=O)N[C@@H](CCO)C2=CC=C(C=C2)Cl)N)C3=NC=NC4=C3C=CN4 [Capivasertib] (first compound max 1 µM, 7x7, partner max 3 µM) | 0.0285 | -0.0051 | 0.0121 | -0.013 | -0.0094 | 0.0078 | -0.0114 | 0.0812 | 0.0232 | -0.0179 | -0.0177 | -0.0327 | 0.0274 | 0.0419 | -0.002 | -0.0077 | 0.0178 | 0.0107 | -0.0273 | 0.0106 |
| CC(=O)c1c(C)c2cnc(Nc3ccc(N4CCNCC4)cn3)nc2n(C2CCCC2)c1=O [Palbociclib] + Cn1cnc2c(F)c(Nc3ccc(Br)cc3Cl)c(C(=O)NOCCO)cc21 [Selumetinib] (first compound max 10 µM, 7x7, partner max 10 µM) | -0.0489 | -0.0178 | -0.0359 | 0.0042 | -0.0213 | 0.0661 | -0.0471 | -0.0233 | 0.0403 | -0.0489 | -0.0971 | -0.0488 | -0.0254 | 0.044 | -0.0028 | -0.0609 | 0.0844 | 0.0146 | 0.0203 | -0.0721 |
| COc1cccc(OCCCN)c1-c1cc(Nc2cnc(C#N)cn2)n[nH]1 [Prexasertib] + C=CCn1c(=O)c2cnc(Nc3ccc(N4CCN(C)CC4)cc3)nc2n1-c1cccc(C(C)(C)O)n1 [AZD1775] (first compound max 1 µM, partner max 1 µM) | 0.0178 | 0.0979 | -0.0118 | 0.0474 | 0.0208 | -0.0076 | 0.0205 | 0.122 | 0.108 | -0.0027 | 0.0024 | -0.0123 | 0.0433 | 0.0659 | 0.0637 | 0.0706 | 0.047 | -0.0133 | 0.114 | 0.0227 |
